In assay [1] the target is T1, recombinant human GzmA (hGzmA) (Homo sapiens, UniProt P12544).
T1 construct: active, mature form; purchased Enzo Life Sciences ALX-201-118-C010
T1 sequence (P12544 29-262): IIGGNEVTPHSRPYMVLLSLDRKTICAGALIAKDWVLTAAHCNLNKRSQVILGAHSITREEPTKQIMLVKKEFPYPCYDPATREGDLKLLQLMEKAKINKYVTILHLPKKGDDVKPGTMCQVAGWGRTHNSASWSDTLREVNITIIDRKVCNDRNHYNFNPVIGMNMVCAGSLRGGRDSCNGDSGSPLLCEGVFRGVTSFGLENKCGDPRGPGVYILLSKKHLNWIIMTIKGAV
Kind of assay: In-gel fluorescence labeling of recombinant active hGzmA. The format is biochemical. As to conditions: hGzmA 100 nM preincubated with inhibitor 5 μM 2 h, then ABPs 3–5 50 nM 2 h, 37 °C. How it is done: Figure 3 GzmA ABPs covalently and competitively label active human and mouse GzmA. […] Recombinant hGzmA (100 nM) was incubated with varying concentrations of each ABP at 37 °C. B) Competitive labeling of hGzmA. Recombinant hGzmA (100 nM) was preincubated with covalent inhibitors 1 or 2 (5 μM) for 2 h, followed by labeling with ABPs 3 –5 (50 nM) for 2 h at 37 °C. Note: Pro‐form of hGzmA (the first lane) is not effectively stained by SYPRO‐Ruby. C) Structure of qABP 6. D) Quenched natures of 5 and 6. […] F) Labeling of mGzmA (1 μM) with 5 and 6 (1 μM, 24 h, 37 °C). Protein samples were analyzed by SDS‐PAGE and in‐gel fluorescence scanning for Cy5 signal and SYPRO Ruby staining. […]
C. In-gel fluorescence imaging
For recombinant enzyme labeling, working solutions of hGzmA (purchased from R&D Systems, Cat. No. 2905-SE-010 for pro-from and Enzo Life Sciences, Cat. No.: ALX-201-118-C010 for active, mature form) were prepared by diluting a 12.6 µM stock in the following assay buffer: 50 […]
mM Tris, 100 mM NaCl, 5 mM CaCl2, 0.01% (v/v) Tween-20, pH 7.5. […]
In-gel fluorescence and
SYPRO-Ruby staining images were acquired on a Typhoon FLA9500 instrument, while western blot images were acquired on an AMHERST ImageQuant 800 instrument.
Conditions for probe/inhibitor treatment for in-gel fluorescence analysis: Inhibitors and probes were incubated with active (or pro-) GzmA followed by treatment with 4X SDS reducing sample buffer. Samples were then heated to 100 °C for 5 min, brought to room temperature, and centrifuged. 20 µL of each sample was loaded onto a 15% polyacrylamide gel, which was then subjected to electrophoresis followed by the acquisition of in-gel fluorescence images. GzmA labeling was confirmed by western blotting, while protein loading was confirmed with SYPRO-Ruby staining. Incubation conditions for each figure/experiment are described below:
Conditions for Figure 3A: For labeling comparison between 3, 4, and 5, 100 nM of human GzmA was incubated with various concentrations of each probe for 2 h at 37 °C. For time-dependent labeling, 50 nM of 5 was incubated with 100 nM of human GzmA at 37 °C for the specified durations. Final reaction volume for both was 20 µL.
Conditions for Figure 3B: 100 nM of human GzmA was incubated with DMSO or 5 µM of 1 or 2 for 2 h at 37 °C in Eppendorf tubes. 0.5 µL of a 2 µM solution of 3, 4, or 5 in DMSO was then spiked into the Eppendorf tube, yielding a final probe concentration of 50 nM. The solution was incubated for another 2 h at 37 °C. Final reaction volume was 20 µL.
Conditions for Figure 3E: 100 nM of human GzmA was incubated with various concentrations of 5 or 6, respectively, for 2 h at 37 °C. Final reaction volume was 20 µL.
Conditions for Figure 3F: 1 µM of mouse GzmA was incubated with 1 µM of 5 or 6, respectively, for 24 h at 37 °C. Final reaction volume was 20 µL.
Conditions for Figure 4A: 1 mg/mL of lysates was incubated with various concentrations of 5 or 6, respectively, for 1 h at 37 °C.
Conditions for Figure 4C: Various concentrations of probes 3-6 were incubated with 1x10^6 NK-92 cells for 2 h at 37 °C in a humidified incubator. Cells were centrifuged, washed with PBS (x2) and lysed with ~40 µL of ice-cold RIPA buffer. Lysates were collected, protein concentration was measured with PIERCE BCA protein assay and samples were analyzed with in-gel fluorescence and GzmA western blotting. […]
All flow cytometry data were collected on BD LSRFortessa and FACSymphony A5 Cell Analyzers and analyzed with FlowJo software. Briefly, cells were processed according to the intended protocols for each experiment. Thereafter, cells were pelleted, fixed in the dark for 20 min at room temperature (Fixation buffer: BioLegend #420801), and pelleted again by centrifugation. Fixed cells were then resuspended in 1x intracellular staining perm wash buffer (BioLegend #421002), followed by centrifugation two times. Fixed/Permeabilized cells were then resuspended in […]

Assay [2] has as its target T2, hGzmA (Homo sapiens, UniProt P12544).
T2 construct: active, mature form; purchased Enzo Life Sciences ALX-201-118-C010
T2 sequence (P12544 29-262): T1 sequence (P12544 29-262)
Kind of assay: Granzyme A cleavage assay (fluorogenic substrate). The format is biochemical. As to conditions: hGzmA 50 nM, inhibitor 200 nM, substrate 100 μM, 50 mM Tris, 150 mM NaCl, 0.01% Triton X-100 pH 8, 15 h, 37 °C, Ex/Em 380/460 nm, mean ± SD n = 3. How it is done: Figure 1 GzmA phosphonate and phosphinate inhibitors. A) Synthesis of phosphonate warhead I‐3. B) Synthesis of phosphosphinate warhead I‐4. C) Synthesis of Ac‐IGNR‐PO(OPh)2 1 and Ac‐IGNR‐PO(OPh)Ph 2. D) GzmA inhibition. hGzmA (50 nM) was incubated with inhibitor 1 or 2 (200 nM) and GzmA fluorogenic substrate (Ac‐Oic‐Gly‐Pro‐Arg‐PABA‐MU, 100 μM) for 15 h at 37 °C. Fluorescence at Ex/Em: 380/460 nm was recorded for residual GzmA proteolytic activity.
A. Granzyme A cleavage assay
Briefly, hGzmA (50 nM) was incubated with either inhibitor 1 or 2 (200 nM), and GzmA fluorogenic substrate […] (100 µM) in 50 mM Tris, 150 mM NaCl, 0.01% Triton X-100 (pH 8) for 15 hr at 37 °C. Recorded fluorescence at Ex/Em: 380/460 nm for residual GzmA […]
Cat. No. CRL-2570) and 4T1 (ATCC Cat. No. CRL-2539) cells were cultured in RPMI supplemented with 10% fetal bovine serum (FBS), 1% penicillin/streptomycin (PS), and 2 mM L-glutamine, while HEK293T and MDA-MB-231 cells (ATCC Cat. No. HTB-26) were cultured in DMEM supplemented likewise as described above. […] The supernatant was collected, and protein concentration was measured using a Pierce BCA protein assay. […]
C. In-gel fluorescence imaging […]
Conditions for probe/inhibitor treatment for in-gel fluorescence analysis: Inhibitors and probes were incubated with active (or pro-) GzmA followed by treatment with 4X SDS reducing sample buffer. […]

Regarding `CC[C@H](C)[C@H](NC(C)=O)C(=O)NCC(=O)N[C@@H](CC(N)=O)C(=O)NC(CCCNC(=N)N)P(=O)(Oc1ccccc1)c1ccccc1` (stereo partly shown) [compound 2, Ac‐IGNR‐PO(OPh)Ph], the “Blocking of ABP labeling of hGzmA by inhibitor pretreatment” value in assay [1] is “competitively blocked”. In addition, in assay [2], the “Inhibition of GzmA‐mediated cleavage of a fluorogenic substrate (residual GzmA proteolytic activity)” value is on record as “comparable potency”.
On the same counts, the results for `CC[C@H](C)[C@H](NC(C)=O)C(=O)NCC(=O)N[C@@H](CC(N)=O)C(=O)NC(CCCNC(=N)N)P(=O)(Oc1ccccc1)Oc1ccccc1` (stereo partly shown) [compound 1, Ac‐IGNR‐PO(OPh)2] are “competitively blocked” and “comparable potency”.
